Measurements from patent US8697655B2, “Method of selecting polypeptide sequence, and metal oxide or silicon-containing compound binding peptide and use thereof” (Riken, priority 2010, dated 2014).

Test: Binding of P-EGFs to TiO2 plate, anti-EGF antibody chemiluminescence detection
Conditions: about 2.0 ng, 10 μl in TBS pH 7.5; washed 3 times with TBS-T; anti-human EGF antibody and HRP secondary
Procedure: Subsequently, in accordance with a scheme in the left in FIG. 4-2, various P-EGF solutions (about 2.0 ng, 10 μl in TBS, pH 7.5) were added on a TiO2 plate (a plate produced by vapor deposition of titanium on the surface of a glass plate with a diameter of 15 mm and a thickness of 0.6 mm (manufactured by Matsunami Glass Ind., Ltd.) (the vapor deposition step was requested to Osaka Vacuum Industrial Co., Ltd.) was used); and a washing operation (TBS-T buffer, pH 7.5) was repeated 3 times. And, after blocking with 0.1% BSA solution, an anti-human EGF antibody was added as a primary antibody. Furthermore, after the washing operation (TBS-T buffer, pH 7.5) was repeated 3 times, an anti-mouse IgG antibody HRP conjugate was added as a secondary antibody. At the end, using a luminescent phenomenon by a reaction between a chemiluminescence reagent and HRP as an index, the presence of protein immobilized on the TiO2 plate was detected. […]
First, in accordance with a scheme in the left in FIG. 7-1, various P-EGF solutions (about 2.0 ng, 10 μl in TBS, pH 7.5) were added on a TiO2 plate and a washing operation (TBS-T buffer, pH 7.5) was repeated 3 times. […] At the end, using a luminescent phenomenon by a reaction between a chemiluminescence reagent and HRP as an index, the presence of protein immobilized on the TiO2 plate was detected.

For “EGF: EGF to which a peptide was not fused”, the “TiO2 plate binding (luminescent phenomenon of protein immobilized on the plate)” value was “did not exhibit TiO2 binding”.
